Read-outs that look alike come from different tables or passages of the source.
Columns and labels:
[1] = tested on: Amaranthus rudis (AMATA), tall water hemp; test: Postemergence herbicide evaluation, growth of Amaranthus rudis (AMATA); format: in vivo; conditions: Amaranthus tuberculatus, post-emergence, read-out: Ave. AMATA, percent reduction in plant size relative to the untreated control; for pest or weed control at 280 g/ha: 280 g ae/ha; for pest or weed control at 560 g/ha: 560 g ae/ha
[2] = tested on: Ambrosia artemisiifolia (AMBEL), common ragweed; test: Postemergence herbicide evaluation, growth of Ambrosia artemisiifolia (AMBEL); format: in vivo; conditions: Ambrosia artemisiifolia, post-emergence, read-out: AVE. AMBEL, percent reduction in plant size relative to the untreated control; for pest or weed control at 280 g/ha: 280 g ae/ha; for pest or weed control at 560 g/ha: 560 g ae/ha
[3] = tested on: Abutilon theophrasti (ABUTH), velvetleaf; test: Postemergence herbicide evaluation, growth of Abutilon theophrasti (ABUTH); format: in vivo; conditions: Abutilon theophrasti, post-emergence, read-out: AVE. ABUTH, percent reduction in plant size relative to the untreated control; for pest or weed control at 280 g/ha: 280 g ae/ha; for pest or weed control at 560 g/ha: 560 g ae/ha
[4] = tested on: Chenopodium album (CHEAL), common lambsquarters; test: Postemergence herbicide evaluation, growth of Chenopodium album (CHEAL); format: in vivo; conditions: Chenopodium album, post-emergence, read-out: Ave. CHEAL, percent reduction in plant size relative to the untreated control; for pest or weed control at 280 g/ha: 280 g ae/ha; for pest or weed control at 560 g/ha: 560 g ae/ha
[5] = tested on: glyphosate resistant Conyza canadensis (L.) (ERICA), horseweed; test: Postemergence herbicide evaluation, growth of Conyza canadensis (ERICA); format: in vivo; conditions: Erigeron canadensis, post-emergence, read-out: Ave. ERICA, percent reduction in plant size relative to the untreated control; for pest or weed control at 280 g/ha: 280 g ae/ha; for pest or weed control at 560 g/ha: 560 g ae/ha
[6] = Volatility of compounds measured by thermogravimetric analysis (TGA); format: physicochemical
[7] = tested on: weeds ABUTH, AMATA, AMBEL, CHEAL, ERICA; test: Postemergence herbicide evaluation, overall average % weed control (ABUTH, AMATA, AMBEL, CHEAL, ERICA); format: in vivo; conditions: post-emergence, read-out: Overall Ave % Weed Control; for pest or weed control at 280 g/ha: 280 g ae/ha; for pest or weed control at 560 g/ha: 560 g ae/ha

In the case of `O=C(COc1ccc(Cl)cc1Cl)Oc1ncc(Cl)cn1` [Compound E13], the pest or weed control at 280 g/ha ([1]; 168 h, 7 DAA) is reported as 85%, the pest or weed control at 560 g/ha ([1]; 168 h, 7 DAA) is reported as 87.5% and the pest or weed control at 280 g/ha ([1]; 336 h, 14 DAA) is reported as 82.5%. For the same compound, the pest or weed control at 560 g/ha ([1]; 336 h, 14 DAA) was 96%, the pest or weed control at 280 g/ha ([1]; 504 h, 21 DAA) was 86.5% and the pest or weed control at 560 g/ha ([1]; 504 h, 21 DAA) was 99%. For the same compound, the pest or weed control at 280 g/ha ([2]; 168 h, 7 DAA) was 70%, the pest or weed control at 560 g/ha ([2]; 168 h, 7 DAA) was 82.5% and the pest or weed control at 280 g/ha ([2]; 336 h, 14 DAA) was 89.5%. The pest or weed control at 560 g/ha ([2]; 336 h, 14 DAA) was 97.5%, the pest or weed control at 280 g/ha ([2]; 504 h, 21 DAA) was 100% and the pest or weed control at 560 g/ha ([2]; 504 h, 21 DAA) was 100%. The pest or weed control at 280 g/ha ([3]; 168 h, 7 DAA) was 76.5%, the pest or weed control at 560 g/ha ([3]; 168 h, 7 DAA) was 72.5% and the pest or weed control at 280 g/ha ([3]; 336 h, 14 DAA) was 90%. It also gave a pest or weed control at 560 g/ha ([3]; 336 h, 14 DAA) of 93.5%, a pest or weed control at 280 g/ha ([3]; 504 h, 21 DAA) of 100% and a pest or weed control at 560 g/ha ([3]; 504 h, 21 DAA) of 100%. The pest or weed control at 280 g/ha ([4]; 168 h, 7 DAA) was 77.5%, the pest or weed control at 560 g/ha ([4]; 168 h, 7 DAA) was 85% and the pest or weed control at 280 g/ha ([4]; 336 h, 14 DAA) was 95%. The pest or weed control at 560 g/ha ([4]; 336 h, 14 DAA) was 90%, the pest or weed control at 280 g/ha ([4]; 504 h, 21 DAA) was 96.5% and the pest or weed control at 560 g/ha ([4]; 504 h, 21 DAA) was 100%. For the same compound, the pest or weed control at 280 g/ha ([5]; 168 h, 7 DAA) was 82.5%, the pest or weed control at 560 g/ha ([5]; 168 h, 7 DAA) was 80% and the pest or weed control at 280 g/ha ([5]; 336 h, 14 DAA) was 100%. The pest or weed control at 560 g/ha ([5]; 336 h, 14 DAA) was 99%, the pest or weed control at 280 g/ha ([5]; 504 h, 21 DAA) was 99.5% and the pest or weed control at 560 g/ha ([5]; 504 h, 21 DAA) was 97.5%. The “TGA Data (rate of weight loss, volatility)” value [6] was 0.16 µg/min, the pest or weed control at 280 g/ha ([7]; 168 h, 7 DAA) was 78.3% and the pest or weed control at 560 g/ha ([7]; 168 h, 7 DAA) was 81.5%. It also gave a pest or weed control at 280 g/ha ([7]; 336 h, 14 DAA) of 91.4%, a pest or weed control at 560 g/ha ([7]; 336 h, 14 DAA) of 95.2% and a pest or weed control at 280 g/ha ([7]; 504 h, 21 DAA) of 96.5%. The pest or weed control at 560 g/ha ([7]; 504 h, 21 DAA) was 99.3%.
Compound `C/C(=N\OC(=O)COc1ccc(Cl)cc1Cl)c1ccncc1` [Compound A27] has a pest or weed control at 280 g/ha ([1]; 168 h, 7 DAA) of 75%, a pest or weed control at 560 g/ha ([1]; 168 h, 7 DAA) of 85% and a pest or weed control at 280 g/ha ([1]; 336 h, 14 DAA) of 90%. For the same compound, the pest or weed control at 560 g/ha ([1]; 336 h, 14 DAA) was 96%, the pest or weed control at 280 g/ha ([1]; 504 h, 21 DAA) was 62.5% and the pest or weed control at 560 g/ha ([1]; 504 h, 21 DAA) was 77.5%. It also gave a pest or weed control at 280 g/ha ([2]; 168 h, 7 DAA) of 80%, a pest or weed control at 560 g/ha ([2]; 168 h, 7 DAA) of 90% and a pest or weed control at 280 g/ha ([2]; 336 h, 14 DAA) of 75%. For the same compound, the pest or weed control at 560 g/ha ([2]; 336 h, 14 DAA) was 82.5%, the pest or weed control at 280 g/ha ([2]; 504 h, 21 DAA) was 100% and the pest or weed control at 560 g/ha ([2]; 504 h, 21 DAA) was 100%. It also gave a pest or weed control at 280 g/ha ([3]; 168 h, 7 DAA) of 60%, a pest or weed control at 560 g/ha ([3]; 168 h, 7 DAA) of 82.5% and a pest or weed control at 280 g/ha ([3]; 336 h, 14 DAA) of 75%. The pest or weed control at 560 g/ha ([3]; 336 h, 14 DAA) was 98.5%, the pest or weed control at 280 g/ha ([3]; 504 h, 21 DAA) was 92.5% and the pest or weed control at 560 g/ha ([3]; 504 h, 21 DAA) was 100%. For the same compound, the pest or weed control at 280 g/ha ([4]; 168 h, 7 DAA) was 77.5%, the pest or weed control at 560 g/ha ([4]; 168 h, 7 DAA) was 85% and the pest or weed control at 280 g/ha ([4]; 336 h, 14 DAA) was 98%. For the same compound, the pest or weed control at 560 g/ha ([4]; 336 h, 14 DAA) was 94.5%, the pest or weed control at 280 g/ha ([4]; 504 h, 21 DAA) was 98.5% and the pest or weed control at 560 g/ha ([4]; 504 h, 21 DAA) was 100%. The pest or weed control at 280 g/ha ([5]; 168 h, 7 DAA) was 85%, the pest or weed control at 560 g/ha ([5]; 168 h, 7 DAA) was 82.5% and the pest or weed control at 280 g/ha ([5]; 336 h, 14 DAA) was 100%. It also gave a pest or weed control at 560 g/ha ([5]; 336 h, 14 DAA) of 100%, a pest or weed control at 280 g/ha ([5]; 504 h, 21 DAA) of 98.5% and a pest or weed control at 560 g/ha ([5]; 504 h, 21 DAA) of 97.5%. For the same compound, the “TGA Data (rate of weight loss, volatility)” value ([6]; value marked *: decomposition of the material was observed) was 1.27* μg/min, the pest or weed control at 280 g/ha ([7]; 168 h, 7 DAA) was 75.5% and the pest or weed control at 560 g/ha ([7]; 168 h, 7 DAA) was 85%. For the same compound, the pest or weed control at 280 g/ha ([7]; 336 h, 14 DAA) was 87.6%, the pest or weed control at 560 g/ha ([7]; 336 h, 14 DAA) was 94.3% and the pest or weed control at 280 g/ha ([7]; 504 h, 21 DAA) was 90.4%. It also gave a pest or weed control at 560 g/ha ([7]; 504 h, 21 DAA) of 95%.

From patent US20260042731A1, “(2,4-DICHLOROPHENOXY)ACETIC ACID ANALOGS” (CORTEVA AGRISCIENCE LLC, priority 2022, published 2026)
